Experimental data taken from US6355640B1, “Pyrazolopyridine adenosine antagonists” (Fujisawa Pharmaceutical Co., Ltd., priority 1993, dated 2002).

| SMILES | melting point [°C] |
| --- | --- |
| O=C1CCCCC1n1nc(-c2c(-c3ccccc3)nn3ccccc23)ccc1=O (single isomer, unassigned) [Example 2 (more polar compound), 3-[2-(2-oxocyclohexyl)-3-oxo-2,3-dihydropyridazin-6-yl]-2-phenylpyrazolo[1,5-a]pyridine] | 166 to 168 |
| O=c1ccc(-c2c(-c3ccccc3)nn3ccccc23)nn1-c1ccccc1 [Example 99, 3-(2-phenyl-3-oxo-2,3-dihydropyridazin-6-yl)-2-phenylpyrazolo[1,5-a]pyridine] | 170 |
| O=C1OCCC1n1nc(-c2c(-c3ccccc3)nn3ccccc23)ccc1=O (stereo not drawn) [Example 25, 3-[2-(2-Oxo-2,3,4,5-tetrahydrofuran-3-yl)-3-oxo-2,3-dihydropyridazin-6-yl]-2-phenylpyrazolo[1,5-a]pyridine] | 179 to 180 |
| O=C(O)CCCC1=C(n2nc(-c3c(-c4ccccc4)nn4ccccc34)ccc2=O)CCCC1 [Example 53, 3-[2-{2-(3-Carboxypropyl)-1-cyclohexenyl}-3-oxo-2,3-dihydropyridazin-6-yl]-2-phenylpyrazolo[1,5-a]pyridine] | 145 to 147 |
| C[C@@]1(O)CCCC[C@H]1n1nc(-c2c(-c3ccccc3)nn3ccccc23)ccc1=O (relative stereo) [Example 35, 3-[2-{(1R*,2R*)-2-hydroxy-2-methylcyclohexyl}-3-oxo-2,3-dihydropyridazin-6-yl]-2-phenylpyrazolo[1,5-a]-pyridine] | 197 to 198 |
| O=C(O)COc1cccc2c1CCC(n1nc(-c3c(-c4ccccc4)nn4ccccc34)ccc1=O)C2=O (stereo not drawn) [Example 119, 3-[2-(1-Carboxymethoxy-5-oxo-5,6,7,8-tetrahydro-6-naphthyl)-3-oxo-2,3-dihydropyridazin-6-yl]-2-phenylpyrazolo[1,5-a]pyridine] | 225 to 227 |
| COC(=O)/C=C1\CCCCC1n1nc(-c2c(-c3ccccc3)nn3ccccc23)ccc1=O (stereo not drawn) [Example 31, (E)-3-[2-(2-methoxycarbonylmethylenecyclohexyl)-3-oxo-2,3-dihydropyridazin-6-yl]-2-phenylpyrazolo[1,5-a]pyridine] | 156 to 157 |
| CCCn1c(-n2nc(-c3c(-c4ccccc4)nn4ccccc34)ccc2=O)cc(=O)n(CCC)c1=O [Example 27, 3-[2-(1,3-Dipropyl-2,4-dioxo-1,2,3,4-tetrahydropyrimidin-6-yl)-3-oxo-2,3-dihydropyridazin-6-yl]-2-phenylpyrazolo[1,5-a]pyridine] | 155.3 |

Results, then the compound that gave them:

| melting point [°C] | SMILES |
| --- | --- |
| 80 to 81 | CN(C)C(=O)CC1=C(n2nc(-c3c(-c4ccccc4)nn4ccccc34)ccc2=O)CCCC1 [Example 71, 3-[2-{2-(N,N-Dimethylcarbamoyl)methyl-1-cyclohexenyl}-3-oxo-2,3-dihydropyridazin-6-yl]-2-phenylpyrazolo[1,5-a]pyridine] |
| 184 to 185 | O=C(CC1=C(n2nc(-c3c(-c4ccccc4)nn4ccccc34)ccc2=O)CCCC1)N1CCCCC1 [Example 85, 3-[2-{2-(Piperidinocarbonyl)methyl-1-cyclohexenyl}-3-oxo-2,3-dihydropyridazin-6-yl]-2-phenylpyrazolo[1,5-a]-pyridine] |
| 172 to 173 | CCOC(=O)C[C@@H]1CCCC[C@H]1n1nc(-c2c(-c3ccccc3)nn3ccccc23)ccc1=O (relative stereo) [Example 33(1), trans-3-[2-(2-Ethoxycarbonylmethylcyclohexyl)-3-oxo-2,3-dihydropyridazin-6-yl]-2-phenylpyrazolo[1,5-a]-pyridine] |
| 85 to 87 | CON=C1CCCCC1n1nc(-c2c(-c3ccccc3)nn3ccccc23)ccc1=O (stereo not drawn) [Example 90, 3-[2-{2-(Methoxyimino)cyclohexyl}-3-oxo-2,3-dihydropyridazin-6-yl]-2-phenylpyrazolo[1,5-a]pyridine] |
